Columns and labels:
Assay type in all cases: functional, cell-based
HT-29 [1] = assay: Inhibitory activity against HT-29 human colon carcinoma cells containing P1-1 GST for treatment time of 60 min.; details: HT-29, 1 h
MCF7 [2] = assay: Inhibitory activity against MCF-7 pi cells containing P1-1 GST for treatment time of 120 min.; details: Homo sapiens, MCF7, 2 h
HT-29 [3] = assay: Inhibitory activity against HT-29 human colon carcinoma cells containing P1-1 GST for treatment time of 120 min.; details: HT-29, 2 h
MCF7 [4] = assay: Inhibitory activity against MCF-7 neo cells […] for treatment time of 120 min.; details: Homo sapiens, MCF7, 2 h

SMILES: NC(CCC(=O)NC(CS(=O)(=O)CCOP(=O)(N(CCCl)CCCl)N(CCCl)CCCl)C(=O)NC(C(=O)O)c1ccccc1)C(=O)O (stereo not drawn)
- IC50 (HT-29 [1]): 170 µM
- IC50 (MCF7 [2]): 9.5 µM
- IC50 (HT-29 [3]): 80.3 µM
- IC50 (MCF7 [4]): 37.5 µM

SMILES: NC(CCC(=O)NC(CS(=O)(=O)CCOP(=O)(N(CCCl)CCCl)N(CCCl)CCCl)C(=O)NCC(=O)O)C(=O)O (stereo not drawn)
- IC50 (HT-29 [1]): 84.7 µM
- IC50 (MCF7 [2]): 20.9 µM
- IC50 (HT-29 [3]): 68.9 µM
- IC50 (MCF7 [4]): 40.2 µM
